From ChEMBL document CHEMBL2440045, “The synthesis and anticancer activity of analogs of the indole phytoalexins brassinin, 1-methoxyspirobrassinol methyl ether and cyclobrassinin” (Bioorg Med Chem, 2013)
pIC50: −log10 of the molar value.

Key:
A549 [1] = experiment: Selectivity index, ratio of IC50 for HUVEC to IC50 for human A549 cells
CCRF-CEM [2] = experiment: Selectivity index, ratio of IC50 for HUVEC to IC50 for human CCRF-CEM cells
HeLa [3] = experiment: Selectivity index, ratio of IC50 for HUVEC to IC50 for human HeLa cells
[4] = Selectivity index, ratio of IC50 for HUVEC to IC50 for human MDA-MB-231 cells
MCF7 [5] = experiment: Selectivity index, ratio of IC50 for HUVEC to IC50 for human MCF7 cells
HUVEC = experiment: Cytotoxicity against HUVEC assessed as cell viability after 48 hrs by MTT assay; format: cell-based; conditions: Homo sapiens
A549 [6] = experiment: Antiproliferative activity against human A549 cells assessed as cell viability after 72 hrs by MTT assay; format: functional, cell-based; conditions: A549, 72 h
HeLa [7] = experiment: Antiproliferative activity against human HeLa cells assessed as cell viability after 72 hrs by MTT assay; format: functional, cell-based
CCRF-CEM [8] = experiment: Antiproliferative activity against human CCRF-CEM cells assessed as cell viability after 72 hrs by MTT assay; format: functional, cell-based
MDA-MB-231 [9] = experiment: Antiproliferative activity against human MDA-MB-231 cells assessed as cell viability after 72 hrs by MTT assay; format: functional, cell-based; conditions: MDA-MB-231, 72 h
Jurkat [10] = experiment: Antiproliferative activity against human Jurkat cells assessed as cell viability after 72 hrs by MTT assay; format: functional, cell-based
MCF7 [11] = experiment: Antiproliferative activity against human MCF7 cells assessed as cell viability after 72 hrs by MTT assay; format: functional, cell-based; conditions: MCF7, 72 h
Jurkat [12] = experiment: Selectivity index, ratio of IC50 for HUVEC to IC50 for human Jurkat cells
MDA-MB-231 [13] = experiment: Potency index, ratio of etoposide IC50 to compound IC50 for human MDA-MB-231 cells; format: functional

Structure (SMILES) | Ratio IC50 (A549 [1]) | Ratio IC50 (CCRF-CEM [2]) | Ratio IC50 (HeLa [3]) | Ratio IC50 [4] | Ratio IC50 (MCF7 [5]) | pIC50 (HUVEC) | pIC50 (A549 [6]) | pIC50 (HeLa [7]) | pIC50 (CCRF-CEM [8]) | pIC50 (MDA-MB-231 [9]) | pIC50 (Jurkat [10]) | pIC50 (MCF7 [11]) | Ratio IC50 (Jurkat [12]) | Ratio IC50 (MDA-MB-231 [13])
c1ccc(NC2=NCc3c([nH]c4ccccc34)S2)cc1 | >2.9 | >11 | >3.7 | >8 | 3 | < 4.00 | 4.47 | 4.57 | 5.05 | 4.91 | 5.02 | 4.50 | >10 | –
Brc1ccc(NC2=NCc3c([nH]c4ccccc34)S2)cc1 | 2 | >6.5 | 2.2 | 7.5 | 2.2 | 4.19 | 4.49 | 4.52 | > 5.00 | 5.07 | 5.08 | 4.53 | 7.8 | 2
Fc1ccc(NC2=NCc3c([nH]c4ccccc34)S2)cc1 | 1.4 | 24.7 | 1.9 | 4.7 | 1.2 | 4.38 | 4.54 | 4.66 | 5.77 | 5.05 | 5.10 | 4.47 | 5.3 | 2
Clc1ccc(NC2=NCc3c([nH]c4ccccc34)S2)cc1 | 1.1 | 0.3 | 0.3 | 1.2 | 0.3 | 5.07 | 5.13 | 4.49 | 4.53 | 5.14 | 5.01 | 4.52 | 0.8 | 2
COc1ccc(NC2=NCc3c([nH]c4ccccc34)S2)cc1 | 1.7 | >5.1 | 3.7 | 7 | 1.8 | 4.29 | 4.52 | 4.86 | > 5.00 | 5.14 | 5.09 | 4.54 | 6.2 | 2
Cc1ccc(NC2=NCc3c([nH]c4ccccc34)S2)cc1 | >3.2 | >20 | >3.6 | >12.6 | 3.1 | < 4.00 | 4.51 | 4.56 | 5.30 | 5.10 | 5.10 | 4.49 | >12.5 | 2
O=[N+]([O-])c1ccc(NC2=NCc3c([nH]c4ccccc34)S2)cc1 | 1.8 | 11.6 | 6.2 | 10.7 | 7.5 | 4.24 | 4.49 | 5.03 | 5.30 | 5.27 | 5.13 | 5.11 | 7.8 | 2
FC(F)(F)c1ccc(NC2=NCc3c([nH]c4ccccc34)S2)cc1 | 1.7 | 6.9 | 0.9 | 1.9 | 1.9 | 4.16 | 4.39 | 4.14 | 5.00 | 4.44 | 5.00 | 4.45 | 6.9 | –
FC(F)(F)c1cc(NC2=NCc3c([nH]c4ccccc34)S2)cc(C(F)(F)F)c1 | 0.7 | 6.6 | 0.7 | 1.3 | 1.3 | 4.30 | 4.15 | 4.16 | 5.12 | 4.43 | 5.12 | 4.41 | 6.6 | –
CSC1=NCc2c([nH]c3ccccc23)S1 [CYCLOBRASSININ] | 0.8 | 2.2 | 1 | 1.2 | 0.8 | 4.24 | 4.15 | 4.24 | 4.58 | 4.32 | 4.53 | 4.14 | 1.9 | –
COc1cc([C@@H]2c3cc4c(cc3[C@@H](O[C@@H]3O[C@@H]5CO[C@@H](C)O[C@H]5[C@H](O)[C@H]3O)[C@H]3COC(=O)[C@H]23)OCO4)cc(OC)c1O [ETOPOSIDE] | 0.09 | 1.14 | 0.32 | 0.06 | 0.11 | 5.90 | – | – | – | – | – | – | 1.04 | –
